ChEMBL document CHEMBL1136582, “Identification of a high-affinity phosphopeptide inhibitor of Stat3” (Bioorg Med Chem Lett, 2003)
Square brackets hold non-standard residues; d marks the D form. Peptide text beside a SMILES is read from it. * marks the point of attachment. ξ: configuration not given here. Phe(4-tetrazol-5-yl) = N[C@@H](Cc1ccc(-c2nnn[nH]2)cc1)C(=O)O; Phe(4-COOH) = N[C@@H](Cc1ccc(C(=O)O)cc1)C(=O)O; pY = N[C@@H](Cc1ccc(OP(=O)(O)O)cc1)C(=O)O; X1 = NC(=O)[C@H](CO)NC[C@H](CC(=O)O)N*; ξA = CC(N)C(=O)O

Molecular target: Signal transducer and activator of transcription 3 (Homo sapiens, UniProt P40763)
Assay: Inhibition of Stat3 (Signal transduction and activator of transcription 3) dimerization measured by EMSAs (Electrophoretic mobility shift assay)

Sequence of Signal transducer and activator of transcription 3 (P40763 whole entry): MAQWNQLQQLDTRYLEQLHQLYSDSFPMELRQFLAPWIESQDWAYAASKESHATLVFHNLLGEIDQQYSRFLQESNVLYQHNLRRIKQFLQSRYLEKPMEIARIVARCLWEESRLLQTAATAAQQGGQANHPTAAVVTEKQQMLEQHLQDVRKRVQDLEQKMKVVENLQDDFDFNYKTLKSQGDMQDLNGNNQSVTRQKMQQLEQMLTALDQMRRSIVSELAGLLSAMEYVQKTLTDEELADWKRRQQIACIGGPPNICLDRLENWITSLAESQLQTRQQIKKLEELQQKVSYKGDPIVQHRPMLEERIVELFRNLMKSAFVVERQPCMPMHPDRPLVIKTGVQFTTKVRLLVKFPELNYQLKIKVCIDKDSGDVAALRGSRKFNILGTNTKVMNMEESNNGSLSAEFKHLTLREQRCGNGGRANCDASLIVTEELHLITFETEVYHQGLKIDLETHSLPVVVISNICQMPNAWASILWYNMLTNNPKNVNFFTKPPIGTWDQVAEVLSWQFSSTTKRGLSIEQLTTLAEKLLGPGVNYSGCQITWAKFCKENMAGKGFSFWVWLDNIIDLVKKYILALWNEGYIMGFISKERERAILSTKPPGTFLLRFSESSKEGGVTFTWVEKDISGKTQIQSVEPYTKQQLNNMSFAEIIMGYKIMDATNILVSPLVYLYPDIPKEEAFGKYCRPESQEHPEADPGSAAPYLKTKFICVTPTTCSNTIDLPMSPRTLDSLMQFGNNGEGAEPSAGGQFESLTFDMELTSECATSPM

IC50 [µM]	SMILES
> 150	CC(=O)N[C@@H](Cc1ccc(OP(=O)(O)O)cc1)C(=O)N[C@@H](CO)C(=O)N[C@H](C(=O)N[C@H](C(=O)N[C@H](C(=O)N[C@@H](Cc1c[nH]cn1)C(N)=O)C(C)C)C(C)C)[C@@H](C)O (Ac-[pY]STVVH-NH2)
0.8	CC(=O)N[C@@H](Cc1ccc(OP(=O)(O)O)cc1)C(=O)N[C@@H](CC(C)C)C(=O)N1CCC[C@H]1C(=O)N[C@@H](CCC(N)=O)C(=O)N[C@@H](C)C(=O)N[C@H](C(N)=O)C(C)C (Ac-[pY]LPQAV-NH2)
2	CC(=O)N[C@@H](Cc1ccc(OP(=O)(O)O)cc1)C(=O)N[C@@H](CC(C)C)C(=O)N1CCC[C@H]1C(=O)N[C@@H](CC(N)=O)C(=O)N[C@H](C(=O)N[C@H](C(N)=O)C(C)C)[C@@H](C)O (Ac-[pY]LPNTV-NH2)
6	CC(=O)N[C@@H](Cc1ccc(OP(=O)(O)O)cc1)C(=O)N[C@@H](CCCN=C(N)N)C(=O)N[C@@H](Cc1cnc[nH]1)C(=O)N[C@@H](CCC(N)=O)C(=O)N[C@H](C(=O)N1CCC[C@H]1C(N)=O)C(C)C (Ac-[pY]RHQVP-NH2)
1.6	CC(=O)N[C@@H](Cc1ccc(OP(=O)(O)O)cc1)C(=O)N[C@@H](C)C(=O)N1CCC[C@H]1C(=O)N[C@@H](CCC(N)=O)C(=O)N[C@H](C(=O)N[C@H](C(N)=O)C(C)C)[C@@H](C)O (Ac-[pY]APQTV-NH2)
6	CC(=O)N[C@@H](Cc1ccc(OP(=O)(O)O)cc1)C(=O)N[C@@H](CCC(N)=O)C(=O)N1CCC[C@H]1C(=O)N[C@@H](CCC(N)=O)C(=O)N[C@@H](C)C(=O)N[C@@H](CCCCN)C(N)=O (Ac-[pY]QPQAK-NH2)
> 6	CC(=O)N[C@@H](Cc1ccc(OP(=O)(O)O)cc1)C(=O)N[C@@H](CC(C)C)C(=O)N1CCC[C@H]1C(=O)N[C@@H](C)C(=O)N[C@H](C(=O)N[C@H](C(N)=O)C(C)C)[C@@H](C)O (Ac-[pY]LPATV-NH2)
8	CC(=O)N[C@@H](Cc1ccc(OP(=O)(O)O)cc1)C(=O)N[C@@H](CCC(N)=O)C(=O)N[C@@H](CCCCN)C(=O)N[C@@H](CCC(N)=O)C(=O)N[C@H](C(=O)N[C@@H](CCCN=C(N)N)C(N)=O)[C@@H](C)O (Ac-[pY]QKQTR-NH2)
> 150	CC(=O)N[C@@H](Cc1ccc(OP(=O)(O)O)cc1)C(=O)N[C@@H](CO)C(=O)N[C@@H](CC(=O)O)C(=O)NCC(=O)N[C@@H](CC(N)=O)C(=O)N[C@@H](Cc1ccccc1)C(N)=O (Ac-[pY]SDGNF-NH2)
1.5	CSCC[C@H](NC(=O)[C@H](Cc1ccc(OP(=O)(O)O)cc1)NC(C)=O)C(=O)N1CCC[C@H]1C(=O)N[C@@H](CCC(N)=O)C(N)=O (Ac-[pY]MPQ-NH2)
8	CC(=O)N[C@@H](Cc1ccc(OP(=O)(O)O)cc1)C(=O)N[C@H](C(=O)N[C@@H](CC(C)C)C(=O)N[C@@H](CCC(N)=O)C(=O)NCC(=O)N[C@@H](CC(=O)O)C(N)=O)C(C)C (Ac-[pY]VLQGD-NH2)
> 6	CC(=O)N[C@@H](Cc1ccc(OP(=O)(O)O)cc1)C(=O)N[C@@H](CC(C)C)C(=O)N1CCC[C@H]1C(N)=O (Ac-[pY]-Leu-Pro-NH2)
4	CC(=O)N[C@@H](Cc1ccc(OP(=O)(O)O)cc1)C(=O)N[C@@H](CC(C)C)C(=O)NC(C)C(=O)N[C@@H](CCC(N)=O)C(=O)N[C@H](C(=O)N[C@H](C(N)=O)C(C)C)[C@@H](C)O (some centres not stated) (Ac-[pY]L[ξA]QTV-NH2)
80	CC(=O)N[C@@H](Cc1ccc(OP(=O)(O)O)cc1)C(=O)N[C@@H](CC(C)C)C(=O)N[C@@H](CCCN=C(N)N)C(=O)N[C@@H](CS)C(=O)N[C@H](CN[C@@H](CO)C(N)=O)CC(=O)O (Ac-[pY]LRC-X1)
> 6	CC(=O)N[C@@H](Cc1ccc(OP(=O)(O)O)cc1)C(=O)N[C@@H](CC(C)C)C(=O)N1CCC[C@H]1C(=O)N[C@@H](CCC(=O)O)C(=O)N[C@H](C(=O)N[C@H](C(N)=O)C(C)C)[C@@H](C)O (Ac-[pY]LPETV-NH2)
6	CC(=O)N[C@@H](Cc1ccc(OP(=O)(O)O)cc1)C(=O)N[C@@H](CC(C)C)C(=O)N[C@@H](CCCCN)C(=O)N[C@@H](CCC(N)=O)C(=O)N[C@@H](CCC(=O)O)C(=O)N[C@@H](CO)C(N)=O (Ac-[pY]LKQES-NH2)
60	CC(=O)N[C@@H](Cc1ccc(OP(=O)(O)O)cc1)C(=O)N[C@@H](Cc1ccccc1)C(=O)N[C@@H](CCCCN)C(=O)N[C@@H](CCC(N)=O)C(=O)N[C@@H](CC(N)=O)C(=O)N[C@@H](CS)C(N)=O (Ac-[pY]FKQNC-NH2)

SMILES	IC50 [µM]
CC(=O)N[C@@H](Cc1ccc(-c2nn[nH]n2)cc1)C(=O)N[C@@H](CC(C)C)C(=O)N1CCC[C@H]1C(=O)N[C@@H](CCC(N)=O)C(=O)N[C@H](C(=O)N[C@H](C(N)=O)C(C)C)[C@@H](C)O (Ac-[Phe(4-tetrazol-5-yl)]LPQTV-NH2)	> 6
CSCC[C@H](NC(=O)[C@H](CCC(N)=O)NC(=O)[C@@H]1CCCN1C(=O)[C@H](CCCCN)NC(=O)[C@H](Cc1ccc(OP(=O)(O)O)cc1)NC(C)=O)C(=O)N[C@@H](Cc1cnc[nH]1)C(N)=O (Ac-[pY]KPQMH-NH2)	0.4
CSCC[C@H](NC(=O)[C@H](C)NC(=O)[C@H](CCC(N)=O)NC(=O)[C@@H]1CCCN1C(=O)[C@H](CCCN=C(N)N)NC(=O)[C@H](Cc1ccc(OP(=O)(O)O)cc1)NC(C)=O)C(N)=O (Ac-[pY]RPQAM-NH2)	1
CC(=O)N[C@@H](Cc1ccc(C(=O)O)cc1)C(=O)N[C@@H](CC(C)C)C(=O)N1CCC[C@H]1C(=O)N[C@@H](CCC(N)=O)C(=O)N[C@H](C(=O)N[C@H](C(N)=O)C(C)C)[C@@H](C)O (Ac-[Phe(4-COOH)]LPQTV-NH2)	> 6
CC(=O)N[C@@H](Cc1ccc(OP(=O)(O)O)cc1)C(=O)N[C@@H](CC(C)C)C(=O)N1CCC[C@H]1C(=O)N[C@@H](CCC(N)=O)C(=O)N[C@H](C(=O)N[C@@H](C)C(=O)O)[C@@H](C)O (Ac-[pY]LPQTA-OH)	0.4
